Values of other authors as cited in patent US20220040156A1, “COMPOSITIONS, DEVICES AND METHODS FOR TREATING OBSESSIVE-COMPULSIVE DISORDER” (CENTRE FOR DIGESTIVE DISEASES, priority 2017, published 2022).

Test system: children with autism / autistic symptoms
Details: reports of Sandler et al. 2000, Rodakis 2015 and unreferenced observations

In the case of `CC1(C)S[C@@H]2[C@H](NC(=O)[C@H](N)c3ccc(O)cc3)C(=O)N2[C@H]1C(=O)O` [amoxycillin], the “effect on behavioural changes / autistic symptoms” value is given as “reversed almost completely”.
For `CN[C@H](CC(C)C)C(=O)N[C@H]1C(=O)N[C@@H](CC(N)=O)C(=O)N[C@H]2C(=O)N[C@H]3C(=O)N[C@H](C(=O)N[C@H](C(=O)O)c4cc(O)cc(O)c4-c4cc3ccc4O)[C@H](O)c3ccc(c(Cl)c3)Oc3cc2cc(c3O[C@@H]2O[C@H](CO)[C@@H](O)[C@H](O)[C@H]2O[C@H]2C[C@](C)(N)[C@H](O)[C@H](C)O2)Oc2ccc(cc2Cl)[C@H]1O` [vancomycin], the “effect on behavioural changes / autistic symptoms” value is given as “reversal of behavioural changes and progress to normality within a few weeks”.
